In patent US5607926A, “Cephalosporin antibiotics” (Microcide Pharmaceuticals, Inc., priority 1995, dated 1997):
Values after ≈ are worked out from the molar mass of the structure shown. Where a name gives a salt, the structure may show the parent alone. Read-outs that look alike come from different tables or passages of the source.

Key:
Assay type in all cases: cell-based
S. aureus ATCC 25923 = test: In vitro antibacterial evaluation, MIC by agar dilution, S. aureus ATCC 25923; settings: Staphylococcus aureus, ATCC25923
Description: The compounds of the invention were evaluated against several β-lactamresistant bacteria strains by determining the minimum inhibitory concentration (MIC, μg/ml) of each compound with respect to each strain. The MIC, the lowest concentration of antibiotic which inhibits growth of the test organism, was determined by the agar dilution method.
To determine the MIC for bacterial isolates, the test compound was incorporated in a series of two-fold dilutions into liquified Mueller-Hinton agar. Upon solidification, a number of different bacterial strains were spot inoculated with a replicating device onto the agar surface. […] The procedures used in these studies have been standardized by the National Committee for Clinical Laboratory Standards (NCCLS), as per the NCCLS publication entitled METHODS FOR DILUTION ANTIMICROBIAL SUSCEPTIBILITY TESTS (1991), which is incorporated herein by reference.
Aliquots of antimicrobial agents were prepared in phosphate buffered saline (PBS) at pH 7.2. Tween 20 or DMSO was used as a solubilizing vehicle as needed. Standard methods of vortexing, sonicating and gentle heat were used to facilitate solubilizing the test agent. Typically, the concentration of the stock solution was 10× that of the highest drug concentration tested. A 1.28 mg/mL stock solution was used with a subsequent highest working concentration of 128 μg/mL. Serial two-fold dilutions were done through ≤0.25 μg/mL. Each drug level was tested in duplicate. Two-fold drug dilutions were done in sterile 50 mL tubes with a final drug volume of 5 mL. Upon the addition of 45 mL of molten agar, a 10-fold dilution resulted. Two, 25 mL. plates were then poured into 15×150 mm square Petri plates with grids and allowed to harden.
A control plate with a reference drug, either cefotaxime, vancomycin or imipenem, was used as the positive growth control. Stock concentrations of reference antibiotics were prepared and frozen at -80° C. Upon preparation, the control plates were sealed and stored in the refrigerator for up to 1 week prior to use; however, imipenem control plates had to be prepared just prior to use. All test plates were used within 24 hours of preparation.
Satisfactory results were obtained where the inoculum contained about 10^4 colony forming units (cfu) ±0.5 logs. Starting with pure cultures of the test isolates on agar plates, a few isolated colonies were transferred to a tube of nutrient broth and allowed to grow 4-6 hours at 35°-36° C. to reach log-phase growth. Dropwise addition of the broth culture to PBS was done to match a 0.5 McFarland turbidity standard equal to 10^8 cfu/mL. This was further diluted ten-fold in PBS to reach a working inoculum concentration of 10^7 cfu/mL. When 1 μL of the working inoculum was applied to the agar surface a concentration of about 10^4 cfu per spot was obtained.
Disposable sterile 1 μL loops were used to inoculate test plates, with each isolate in a designated grid on the agar plate. An alternate method of inoculation involved the use of a replica plater, a device with 48 steel pins allowing the simultaneous inoculation of multiple isolates. After the spots had dried, the plates were incubated at 35°-36° C. for 16-20 hours. Endpoints were assessed as the minimum inhibitory concentration (MIC) of antimicrobial agent.

[1] = test system: S. epidermidis ATCC 31432; test: In vitro antibacterial evaluation, MIC by agar dilution, S. epidermidis ATCC 31432; settings: Staphylococcus epidermidis, ATCC31432
Procedure, shortened: (§1)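 Minimum inhibitory concentrations came from the NCCLS agar dilution method in Mueller-Hinton agar. Each isolate received about 10^4 cfu per spot, and plates were read after 16-20 hours at 35°-36° C.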

[2] = test system: S. aureus 76 (Meth^R)(lac^+); test: In vitro antibacterial evaluation, MIC by agar dilution, S. aureus 76; settings: Staphylococcus aureus, read-out: MIC
Procedure, shortened: as §1

[3] = test system: S. aureus Col8A (Meth^S)(lac^-); test: In vitro antibacterial evaluation, MIC by agar dilution, S. aureus Col8A; settings: Staphylococcus aureus
Procedure, shortened: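 Agar dilution per NCCLS (1991): two-fold dilutions from 128 μg/mL down to ≤0.25 μg/mL in Mueller-Hinton agar, each level in duplicate. Spots of about 10^4 cfu of log-phase culture; 16-20 h at 35°-36° C. MIC in μg/ml is the lowest concentration inhibiting growth.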

S. haemolyticus (Meth^R) = test: In vitro antibacterial evaluation, MIC by agar dilution, S. haemolyticus; settings: Staphylococcus haemolyticus, read-out: MIC
Procedure, shortened: as §1

E. faecium ATCC 35667 = test: In vitro antibacterial evaluation, MIC by agar dilution, E. faecium ATCC 35667; settings: Enterococcus faecium, ATCC35667, read-out: MIC
Procedure, shortened: as §1

E. faecalis ATCC 29212 = test: In vitro antibacterial evaluation, MIC by agar dilution, E. faecalis ATCC 29212; settings: Enterococcus faecalis, ATCC29212; E. faecalis ATCC 29212; read-out: MIC
Procedure, shortened: as §1

E. coli ATCC 25922 = test: In vitro antibacterial evaluation, MIC by agar dilution, E. coli ATCC 25922; settings: Escherichia coli, ATCC25922, read-out: MIC
Procedure, shortened: as §1

P. aeruginosa ATCC 27853 = test: In vitro antibacterial evaluation, MIC by agar dilution, P. aeruginosa ATCC 27853; settings: Pseudomonas aeruginosa, ATCC27853, read-out: MIC
Procedure, shortened: as §1

[4] = S. aureus ATCC 25923, read-out: MIC
[5] = S. epidermidis ATCC 31432, read-out: MIC

Structure (SMILES)	MIC (S. aureus ATCC 25923; [4]) [µg/mL]	MIC [1, 5] [µg/mL]	MIC [2] [µg/mL]	MIC [3] [µg/mL]	MIC (S. haemolyticus (Meth^R)) [µg/mL]	MIC (E. faecium ATCC 35667) [µg/mL]	MIC (E. faecalis ATCC 29212) [µg/mL]	MIC (E. coli ATCC 25922) [µg/mL]	MIC (P. aeruginosa ATCC 27853) [µg/mL]	MIC (S. aureus ATCC 25923) [µg/mL]	MIC [1] [µg/mL]
N#Cc1ccc(SC2=C(C(=O)O)N3C(=O)[C@@H](NC(=O)Cc4ccccc4)[C@H]3SC2)c([N+](=O)[O-])c1 [Cmpd 49, (7R)-7-[(Phenylacetyl)amino]-3-(4-cyano-2-nitrophenylthio)-3-cephem-4-carboxylic acid]	< 0.25	< 0.25	16 (≈ 32.2 µM)	0.5 (≈ 1.01 µM)	32 (≈ 64.4 µM)	4 (≈ 8.06 µM)	4 (≈ 8.06 µM)	> 32	> 32	–	–
O=Cc1ccccc1SC1=C(C(=O)O)N2C(=O)[C@@H](NC(=O)Cc3ccccc3)[C@H]2SC1 [Cmpd 50, (7R)-7-[(Phenylacetyl)amino]-3-(2-formylphenylthio)-3-cephem-4-carboxylic acid]	–	–	8 (≈ 17.6 µM)	< 0.25	8 (≈ 17.6 µM)	4 (≈ 8.8 µM)	4 (≈ 8.8 µM)	8 (≈ 17.6 µM)	> 32	< 0.25	< 0.25
O=C(Cc1ccccc1)N[C@@H]1C(=O)N2C(C(=O)O)=C(Sc3cccc4c3CCCC4)CS[C@H]12 [Cmpd 56, (7R)-7-[(Phenylacetyl)amino]-3-(5,6,7,8-tetrahydronaphthalen-1-ylthio)-3-cephem-4-carboxylic acid]	–	–	4 (≈ 8.32 µM)	< 0.25	16 (≈ 33.3 µM)	4 (≈ 8.32 µM)	2 (≈ 4.16 µM)	> 32	> 32	< 0.25	< 0.25
O=C(Cc1ccccc1)N[C@@H]1C(=O)N2C(C(=O)O)=C(Sc3ccc4ccccc4c3Br)CS[C@H]12 [Cmpd 57, (7R)-7-[(Phenylacetyl)amino]-3-(1-bromo-naphthalen-2-ylthio)-3-cephem-4-carboxylic acid]	–	–	2 (≈ 3.6 µM)	< 0.25	4 (≈ 7.2 µM)	1 (≈ 1.8 µM)	2 (≈ 3.6 µM)	32 (≈ 57.6 µM)	32 (≈ 57.6 µM)	< 0.25	< 0.25
O=C(Cc1ccccc1)N[C@@H]1C(=O)N2C(C(=O)O)=C(Sc3ccc(CSC4=NCCN4)cc3I)CS[C@H]12 [Cmpd 59, (7R)-7-[(Phenylacetyl)amino]-3-(4-(2-imidazolin-2-ylthiomethyl)-2-iodophenylthio)-3-cephem-4-carboxylic acid]	–	–	8 (≈ 12 µM)	< 0.25	16 (≈ 24 µM)	4 (≈ 6 µM)	4 (≈ 6 µM)	> 32	> 32	< 0.25	< 0.25
N=C(N)NC(=N)SCc1ccc(SC2=C(C(=O)O)N3C(=O)[C@@H](NC(=O)Cc4ccccc4)[C@H]3SC2)c(I)c1 [Cmpd 60, (7R)-7-[(Phenylacetyl)amino]-3-(4-(N-amidino)isothiouroniummethyl-2-iodophenylthio)-3-cephem-4-carboxylate, inner salt]	–	–	4	< 0.25	4 to 8	1	1	> 32	> 32	< 0.25	< 0.25
N=C(NCCN1CCOCC1)SCc1ccc(SC2=C(C(=O)O)N3C(=O)[C@@H](NC(=O)Cc4ccccc4)[C@H]3SC2)c(I)c1 [Cmpd 61, (7R)-7-[(Phenylacetyl)amino]-3-(4-(N-morpholinoethyl)isothiouroniummethyl-2-iodophenylthio)-3-cephem-4-carboxylate, inner salt]	< 0.25	< 0.25	16	0.5	> 32	4	4	> 32	> 32	–	–
CN(C)C(SCc1ccc(SC2=C(C(=O)[O-])N3C(=O)[C@@H](NC(=O)Cc4ccccc4)[C@H]3SC2)c(I)c1)=[N+](C)C [Cmpd 62, (7R)-7-[(Phenylacetyl)amino]-3-(4-tetra-methylisothiouroniummethyl-2-iodophenylthio)-3-cephem-4-carboxylate, inner salt]	–	–	16	< 0.25	32	4	2	> 32	> 32	< 0.25	< 0.25
N=C(N)SCc1ccc(SC2=C(C(=O)O)N3C(=O)[C@@H](NC(=O)Cc4ccccc4)[C@H]3SC2)cc1 [Cmpd 63, (7R)-7-[(Phenylacetyl)amino]-3-(4-isothiouroniummethylphenylthio)-3-cephem-4-carboxylate, inner salt]	–	–	16	< 0.25	32	1	1	8	> 32	< 0.25	< 0.25
N#CCC(=O)N[C@@H]1C(=O)N2C(C(=O)O)=C(Sc3ccc(CSC(=N)N)cc3I)CS[C@H]12 [Cmpd 66, (7R)-7-[(Cyanoacetyl)amino]-3-(4-isothiouroniummethyl-2-iodophenylthio)-3-cephem-4-carboxylate, inner salt]	–	–	8	< 0.25	8	1	4	> 32	> 32	< 0.25	< 0.25
C[n+]1cccc(SC2=C(C(=O)[O-])N3C(=O)[C@@H](NC(=O)Cc4ccccc4)[C@H]3SC2)c1-c1ccccc1 [Cmpd 82, (7R)-7-[(Phenylacetyl)amino]-3-(2-phenyl-N-methylpyridin-3-iumthio)-3-cephem-4-carboxylate]	–	–	16 (≈ 30.9 µM)	< 0.25	32 (≈ 61.8 µM)	4 (≈ 7.73 µM)	1 (≈ 1.93 µM)	> 32	> 32	< 0.25	< 0.25
O=C(Cc1ccccc1)N[C@@H]1C(=O)N2C(C(=O)[O-])=C(Sc3ccc[n+](Cc4ccccc4)c3-c3ccccc3)CS[C@H]12 [Cmpd 83, (7R)-7-[(Phenylacetyl)amino]-3-(2-phenyl-N-benzylpyridin-3-iumthio)-3-cephem-4-carboxylate]	–	–	16 (≈ 26.9 µM)	< 0.25	32 (≈ 53.9 µM)	2 (≈ 3.37 µM)	1 (≈ 1.68 µM)	> 32	> 32	< 0.25	< 0.25
O=C(Cc1ccc(Cl)cc1)N[C@@H]1C(=O)N2C(C(=O)O)=C(Sc3cccnc3-c3ccccc3)CS[C@H]12 [Cmpd 84, (7R)-7-[(4-Chlorophenylacetyl)amino]-3-(2-phenylpyridin-3-ylthio)-3-cephem-4-carboxylic acid]	–	–	8 (≈ 14.9 µM)	< 0.25	8 (≈ 14.9 µM)	1 (≈ 1.86 µM)	1 (≈ 1.86 µM)	> 32	> 32	< 0.25	< 0.25
